Results taken from patent US8486949B2, “Use of azaperone for improving growth performance” (Elanco Animal Health Ireland Limited, priority 2008, dated 2013).

Tests used:
weaned pigs [1] = assay: Preclinical study of the effects of azaperone administered via drinking water: body weight per pig; assay type: in vivo
Procedure: Preclinical Study of the Effects of Azaperone Administered Via Drinking Water The study was performed in weaned pigs to investigate the effect of azaperone that was continuously orally administered via drinking water on behaviour, feed conversion, growth and homogeneity of growth. Groups of approximately 250 pigs were enrolled in the study starting from the moment they were weaned. The pigs were housed according to everyday farming conditions in a conventional pig farm. All pigs were housed in similar buildings. Each group was housed in 2 compartments, gilts and barrows were housed in separate compartments. Pigs were kept in pens of approximately 12 individuals each. After weaning, the piglets were housed in continuous artificial light for the first 48 hours. Afterwards, pigs were housed in continuous darkness for the further duration of the study, except during observations (twice a day). During the course of the study, pigs were not vaccinated. A metaphylactic colistine treatment via drinking water was applied in each group starting from the fifth day after weaning. Treatment continued for seven days. Pigs were fed ad libitum. Troughs were filled automatically with a computerized system that records the supplied weight of feed per pen. During the first ten days of the nursery period, pigs were fed a pelleted weaner feed which had also been available to the piglets in the farrowing unit. Between the 10th and 15th day at the nursery, the weaner feed was gradually replaced by grower pellets which have been given until the 35th day. Finally a switch was made between the 35th and the 40th day from grower pellets to starter pellets. Tap water was available during the whole period of the study and was supplied via a water nipple in the feeding trough. The drinking water comprising azaperone was obtained by diluting Stresnil™ injection in water to obtain a concentration of 6 mg azaperone per liter drinking water. A primary dilution was prepared by diluting 90 ml of Stresnil™ 4% injectable solution with tap water to obtain 6 liters of preparation. This primary dilution was linked for 24 hours with an automatic dosing system which continuously diluted the preparation in the drinking water at a rate of 1 to 100. One preparation of the primary dilution was sufficient to treat 600 liters of drinking water which exceeded the anticipated daily consumed volume of water by the pigs in one compartment. The two following days, a new primary dilution was made fresh each morning and linked to the automatic dosing system for 24 hours. This study was a controlled parallel study with 4 sequential groups of approximately 250 weaned pigs each. The first and third group were treated with azaperone via the drinking water for 3 consecutive days. The second and fourth group were control groups treated with placebo (plain drinking water). After the completion of these four groups, two additional groups (one treated with azaperone and one control group) were included in the study to investigate more in detail the effect of the azaperone treatment on the behaviour of the pigs. In each of these additional groups, 5 pens of approximately 12 pigs were enclosed. On day one of the test period, water containing 6 mg azaperone per liter or placebo, was made available. Starting from the fourth day, the drinking water no longer contained azaperone. All pigs followed the normal procedures for further fattening. No pigs were brought to the slaughterhouse during the study (3 days dosing and 39 days follow-up). Body weights were determined for all pigs in groups 1 to 4. The body weight of each individual animal was determined a first time at the start of the study, just before movement to the nursery and a second time at the end of the study, after a period of 42 days in the nursery. […]

pigs = conditions: cited from earlier work
weaned pigs [2] = assay: Behaviour of the animals per pen (groups 5 and 6: pigs lying down, eating or drinking, hierarchical fights); assay type: in vivo
Procedure: This study was a controlled parallel study with 4 sequential groups of approximately 250 weaned pigs each. The first and third group were treated with azaperone via the drinking water for 3 consecutive days. The second and fourth group were control groups treated with placebo (plain drinking water). After the completion of these four groups, two additional groups (one treated with azaperone and one control group) were included in the study to investigate more in detail the effect of the azaperone treatment on the behaviour of the pigs. In each of these additional groups, 5 pens of approximately 12 pigs were enclosed.
In order to assess the effect of the azaperone treatment on the behaviour of the animals after weaning, the occurrence of hierarchical fights was followed in groups 1 to 4 and recorded by the Principal Investigator during a period of 1 week after weaning. Every day a behaviour score of 0 to 2 was given to each pen:
In groups 1 to 4, behaviour of the pigs was always scored as normal although hierarchical fighting was reported on the farm. […] These two additional groups (one treated with azaperone and one control group) were closely monitored for behavioural changes. During the first 7 hours after weaning and movement to the nurseries, the occurrence and severity of hierarchical fights, the number of pigs laying down, and the number of pigs eating or drinking, was recorded. […]

O=C(CCCN1CCN(c2ccccn2)CC1)c1ccc(F)cc1 [azaperone]
body weight gained during the study (weaned pigs [1]; 6 mg azaperone per liter drinking water for 3 days, 42 day test period, mean±SD): 16.3 ± 3.31 kg
Final BW CoV (coefficient of variation) (weaned pigs [1]; after 42 days in the nursery): 18%
Final BW (weaned pigs [1]; after 42 days in the nursery, 6 mg/liter drinking water for first 3 days): 23.62 kg
body weight gain CoV (coefficient of variation) (weaned pigs [1]; over 42 days): 20%
body weight gain (weaned pigs [1]; over 42 days, 6 mg/liter drinking water for first 3 days): 16.34 kg
homogeneity of body weight distribution at the end of the testing period (weaned pigs [1]; versus placebo groups): more homogenous body weight distribution
effect on weight gain, feed consumption or feed efficiency (pigs; intramuscular administration to pigs, Gonyou et al., J. Anim. Sci. 1988): did not had significant effect
effect in promoting relative growth rate (pigs; intramuscular injection to pigs, Blackshaw, Aust. Vet. J. 1981): no effect
weight gain (pigs; intramuscular injection to pigs, Porter and Slusser, Veterinary Medicine 1985): increased weight gain
number of pigs lying down or eating versus placebo (weaned pigs [2]; groups 5 and 6, first 7 hours after initiation of treatment, 6 mg/liter drinking water): no difference
sedative effect (weaned pigs [2]; oral via drinking water, 6 mg/liter): absence of a sedative effect
